# Reference: patent US10040838B2, “CRHR2 peptide agonists and uses thereof” (JANSSEN PHARMACEUTICA NV, priority 2008, dated 2018)
# No end group written: not given here.
# Molecular target: T1, human CRHR2 (Homo sapiens, UniProt Q13324)
# T1 construct: expressed in transfected cells
# T1 sequence (Q13324 1-411): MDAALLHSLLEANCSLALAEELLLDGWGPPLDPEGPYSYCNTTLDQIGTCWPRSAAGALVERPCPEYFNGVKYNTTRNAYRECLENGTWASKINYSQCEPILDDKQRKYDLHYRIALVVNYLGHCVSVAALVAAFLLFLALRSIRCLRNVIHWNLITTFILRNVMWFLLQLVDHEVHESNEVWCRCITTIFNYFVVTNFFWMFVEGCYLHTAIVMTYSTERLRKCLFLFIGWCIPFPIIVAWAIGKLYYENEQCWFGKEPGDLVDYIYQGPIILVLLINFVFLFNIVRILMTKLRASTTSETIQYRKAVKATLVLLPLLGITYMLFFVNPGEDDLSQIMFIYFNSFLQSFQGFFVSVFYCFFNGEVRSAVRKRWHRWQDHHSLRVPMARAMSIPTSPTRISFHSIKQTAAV
# Assay: cAMP assay in h-CRHR2 transfected SK-N-MC cells
# Type: cell-based
# Conditions: Table 12; Hill slope
# In short: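 SK-N-MC cells stably expressing human CRHR2 were stimulated with peptides (1 pM-10 μM) for 60 min at 37 °C with 10 μM IBMX, then lysed in 0.5 M HCl. cAMP was quantified by competitive [125I]-cAMP antibody flash-plate assay. Hill-equation fits gave A50/pA50; Log DR was taken relative to h-SCP control in the same batch.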
row,Substance,nH
1,"TKFTLSLDVPTNIMNLLFNIAKAKNLRAQAAANAHLMAQI-OH [SEQ ID NO: 113, TKFTLSLDVPTNIMNLLFNIAKAKNLRAQAAANAHLMAQI, reference compound]",1.07
2,"TLSLDVPTNIMNLLFNIAKAKNLRAQAAANAHLMAQI-NH2 [SEQ ID NO: 108, TLSLDVPTNIMNLLFNIAKAKNLRAQAAANAHLMAQI-NH2]",0.82

# Same assay, conditions: Table 13; h-SCP control pA50 minus test compound pA50 within same assay batch
row,Substance,Log DR
1,"TKFTLSLDVPTNIMNLLFCIAKAKNLRAQAAANAHLMAQI-NH2 [SEQ ID NO: 20, TKFTLSLDVPTNIMNLLFCIAKAKNLRAQAAANAHLMAQI-NH2]",0.52
2,"TKFTLSLDVPTNIMNLLFNCAKAKNLRAQAAANAHLMAQI-NH2 [SEQ ID NO: 21, TKFTLSLDVPTNIMNLLFNCAKAKNLRAQAAANAHLMAQI-NH2]",0.77
3,"TKFTLSLDVPTNIMNLLFNIACAKNLRAQAAANAHLMAQI-NH2 [SEQ ID NO: 23, TKFTLSLDVPTNIMNLLFNIACAKNLRAQAAANAHLMAQI-NH2]",1.13
4,"TKFTLSLDVPTNIMNLLFNIAKACNLRAQAAANAHLMAQI-NH2 [SEQ ID NO: 25, TKFTLSLDVPTNIMNLLFNIAKACNLRAQAAANAHLMAQI-NH2]",0.35
5,"TKFTLSLDVPTNIMNLLFNIAKAKCLRAQAAANAHLMAQI-NH2 [SEQ ID NO: 26, TKFTLSLDVPTNIMNLLFNIAKAKCLRAQAAANAHLMAQI-NH2]",0.08
6,"TKFTLSLDVPTNIMNLLFNIAKAKNCRAQAAANAHLMAQI-NH2 [SEQ ID NO: 27, TKFTLSLDVPTNIMNLLFNIAKAKNCRAQAAANAHLMAQI-NH2]",0.76
7,"TKFTLSLDVPTNIMNLLFNIAKAKNLCAQAAANAHLMAQI-NH2 [SEQ ID NO: 28, TKFTLSLDVPTNIMNLLFNIAKAKNLCAQAAANAHLMAQI-NH2]",0.16
8,"TKFTLSLDVPTNIMNLLFNIAKAKNLRACAAANAHLMAQI-NH2 [SEQ ID NO: 30, TKFTLSLDVPTNIMNLLFNIAKAKNLRACAAANAHLMAQI-NH2]",1.28
9,"TKFTLSLDVPTNIMNLLFNIAKAKNLRAQAAACAHLMAQI-NH2 [SEQ ID NO: 34, TKFTLSLDVPTNIMNLLFNIAKAKNLRAQAAACAHLMAQI-NH2]",>3.19
10,"TKFTLSLDVPTNIMNLLFNIAKAKNLRAQAAANACLMAQI-NH2 [SEQ ID NO: 36, TKFTLSLDVPTNIMNLLFNIAKAKNLRAQAAANACLMAQI-NH2]",0.42
11,"TKFTLSLDVPTNIMNLLFNIAKAKNLRAQAAANAHCMAQI-NH2 [SEQ ID NO: 37, TKFTLSLDVPTNIMNLLFNIAKAKNLRAQAAANAHCMAQI-NH2]",1.05
12,"TKFTLSLDVPTNIMNLLFNIAKAKNLRAQAAANAHLCAQI-NH2 [SEQ ID NO: 38, TKFTLSLDVPTNIMNLLFNIAKAKNLRAQAAANAHLCAQI-NH2]",>2.95
13,"TKFTLSLDVPTNIMNLLFNIAKAKNLRAQAAANAHLMACI-NH2 [SEQ ID NO: 40, TKFTLSLDVPTNIMNLLFNIAKAKNLRAQAAANAHLMACI-NH2]",0.55
14,"TKFTLSLDVPTNIMNLLFNIAKAKNLRAQAAANAHLMAQC-NH2 [SEQ ID NO: 41, TKFTLSLDVPTNIMNLLFNIAKAKNLRAQAAANAHLMAQC-NH2]",2.07
15,"TKFTLSLDVPTNIMNLLFNIAKAKNLRAQAAANAHLMCQI-NH2 [SEQ ID NO: 39, TKFTLSLDVPTNIMNLLFNIAKAKNLRAQAAANAHLMCQI-NH2]",0.41
16,"TKFTLSLDVPTNIMNLLFNIAKAKNLRAQAAANCHLMAQI-NH2 [SEQ ID NO: 35, TKFTLSLDVPTNIMNLLFNIAKAKNLRAQAAANCHLMAQI-NH2]",0.70
17,"TKFTLSLDVPTNIMNLLFNIAKAKNLRAQAACNAHLMAQI-NH2 [SEQ ID NO: 33, TKFTLSLDVPTNIMNLLFNIAKAKNLRAQAACNAHLMAQI-NH2]",0.45
18,"TKFTLSLDVPTNIMNLLFNIAKAKNLRAQACANAHLMAQI-NH2 [SEQ ID NO: 32, TKFTLSLDVPTNIMNLLFNIAKAKNLRAQACANAHLMAQI-NH2]",0.11
19,"TKFTLSLDVPTNIMNLLFNIAKAKNLRAQCAANAHLMAQI-NH2 [SEQ ID NO: 31, TKFTLSLDVPTNIMNLLFNIAKAKNLRAQCAANAHLMAQI-NH2]",1.61
20,"TKFTLSLDVPTNIMNLLFNIAKAKNLRCQAAANAHLMAQI-NH2 [SEQ ID NO: 29, TKFTLSLDVPTNIMNLLFNIAKAKNLRCQAAANAHLMAQI-NH2]",0.00
21,"TKFTLSLDVPTNIMNLLFNIAKCKNLRAQAAANAHLMAQI-NH2 [SEQ ID NO: 24, TKFTLSLDVPTNIMNLLFNIAKCKNLRAQAAANAHLMAQI-NH2]",0.74
22,"TKFTLSLDVPTNIMNLLFNICKAKNLRAQAAANAHLMAQI-NH2 [SEQ ID NO: 22, TKFTLSLDVPTNIMNLLFNICKAKNLRAQAAANAHLMAQI-NH2]",0.52

# Same assay, conditions: versus h-SCP (SEQ ID NO:1)
row,Substance,fold less potent than the amidated parent peptide
1,"TKFTLSLDVPTNIMNLLFNIAKAKNLRAQAAANAHLMAQI-OH [SEQ ID NO: 113, TKFTLSLDVPTNIMNLLFNIAKAKNLRAQAAANAHLMAQI, reference compound]",approximately 200 fold
